Measured values taken from patent US20120270237A9, “METHODS FOR THE IDENTIFICATION OF KINASE INTERACTING MOLECULES AND FOR THE PURIFICATION OF KINASE PROTEINS” (Cellzone AG, priority 2009, published 2012).

Legend:
[1] = molecular target: LOK (Homo sapiens, UniProt O94804); assay: Kinobeads competition binding, HL60 cell lysate; parameters: Identified kinases with CZC31326 from HL60 lysate; endogenous in cells; host or cells: HL60; conditions: 10 μM free compound
Experimental: (§1) To one aliquot of cell lysate 10 μM of the free compound (FIG. 3, CZC31326) was added and allowed to bind to proteins in the lysate. Then the affinity matrix with the immobilized compound (Example 1) was added to capture proteins that were not interacting with the previously added free compound. Beads were separated from the lysate and bead bound proteins were eluted in SDS sample buffer and subsequently separated by SDS-Polyacrylamide gel electrophoresis (FIG. 4). Suitable gel bands were cut out and subjected to in-gel proteolytic digestion with trypsin. The second lysate aliquot was processed identically, however no free compound was added (DMSO solvent control). Peptides originating from samples 1 and 2 were labeled with iTRAQ reagents (iTRAQ 114 and iTRAQ 117) and the combined samples were analyzed with a nano-flow liquid chromatography system coupled online to a tandem mass spectrometer (LC-MS/MS) experiment followed by iTRAQ reporter ion quantification in the MS/MS spectra (Ross et al., 2004. Mol. Cell. Proteomics 3(12):1154-1169). Further experimental protocols can be found in WO2006/134056 and a previous publication (Bantscheff et al., 2007. Nature Biotechnology 25, 1035-1044). Sepharose-beads with the immobilized compound (100 μl beads per pull-down experiment) were equilibrated in lysis buffer and incubated with a cell lysate sample containing 50 mg of protein on an end-over-end shaker (Roto Shake Genie, Scientific Industries Inc.) for 2 hours at 4° C. Beads were collected, transferred to Mobicol-columns (MoBiTech 10055) and washed with 10 ml lysis buffer containing 0.4% NP40 detergent, followed by 5 ml lysis buffer containing 0.2% detergent. To elute bound proteins, 60 μl 2×SDS sample buffer was added to the column. The column was incubated for 30 minutes at 50° C. and the eluate was transferred to a siliconized microfuge tube by centrifugation. Proteins were then alkylated with 108 mM iodoacetamid. Proteins were then separated by SDS-Polyacrylamide electrophoresis (SDS-PAGE). The peptide extracts of samples treated with 10 μM of free compound (CZC31326) and the solvent control (0.5% DMSO) were treated with different variants of the isobaric tagging reagent (iTRAQ Reagents Multiplex Kit, part number 4352135, Applied Biosystems, Foster City, Calif., USA). The iTRAQ reagents are a set of multiplexed, amine-specific, stable isotope reagents that can label peptides on amino groups in up to four different biological samples enabling simultaneous identification and quantitation of peptides. […] Relative protein quantitation was performed using peak areas of iTRAQ reporter ion signals essentially as described in an earlier publication (Bantscheff et al., 2007. Nature Biotechnology 25, 1035-1044).

[2] = molecular target: LRRK2 (Homo sapiens, UniProt Q5S007); assay: Kinobeads competition binding, HL60 cell lysate; parameters: Identified kinases with CZC31326 from HL60 lysate; endogenous in cells; host or cells: HL60; conditions: 10 μM free compound
LRRK2, sequence (Q5S007 whole entry): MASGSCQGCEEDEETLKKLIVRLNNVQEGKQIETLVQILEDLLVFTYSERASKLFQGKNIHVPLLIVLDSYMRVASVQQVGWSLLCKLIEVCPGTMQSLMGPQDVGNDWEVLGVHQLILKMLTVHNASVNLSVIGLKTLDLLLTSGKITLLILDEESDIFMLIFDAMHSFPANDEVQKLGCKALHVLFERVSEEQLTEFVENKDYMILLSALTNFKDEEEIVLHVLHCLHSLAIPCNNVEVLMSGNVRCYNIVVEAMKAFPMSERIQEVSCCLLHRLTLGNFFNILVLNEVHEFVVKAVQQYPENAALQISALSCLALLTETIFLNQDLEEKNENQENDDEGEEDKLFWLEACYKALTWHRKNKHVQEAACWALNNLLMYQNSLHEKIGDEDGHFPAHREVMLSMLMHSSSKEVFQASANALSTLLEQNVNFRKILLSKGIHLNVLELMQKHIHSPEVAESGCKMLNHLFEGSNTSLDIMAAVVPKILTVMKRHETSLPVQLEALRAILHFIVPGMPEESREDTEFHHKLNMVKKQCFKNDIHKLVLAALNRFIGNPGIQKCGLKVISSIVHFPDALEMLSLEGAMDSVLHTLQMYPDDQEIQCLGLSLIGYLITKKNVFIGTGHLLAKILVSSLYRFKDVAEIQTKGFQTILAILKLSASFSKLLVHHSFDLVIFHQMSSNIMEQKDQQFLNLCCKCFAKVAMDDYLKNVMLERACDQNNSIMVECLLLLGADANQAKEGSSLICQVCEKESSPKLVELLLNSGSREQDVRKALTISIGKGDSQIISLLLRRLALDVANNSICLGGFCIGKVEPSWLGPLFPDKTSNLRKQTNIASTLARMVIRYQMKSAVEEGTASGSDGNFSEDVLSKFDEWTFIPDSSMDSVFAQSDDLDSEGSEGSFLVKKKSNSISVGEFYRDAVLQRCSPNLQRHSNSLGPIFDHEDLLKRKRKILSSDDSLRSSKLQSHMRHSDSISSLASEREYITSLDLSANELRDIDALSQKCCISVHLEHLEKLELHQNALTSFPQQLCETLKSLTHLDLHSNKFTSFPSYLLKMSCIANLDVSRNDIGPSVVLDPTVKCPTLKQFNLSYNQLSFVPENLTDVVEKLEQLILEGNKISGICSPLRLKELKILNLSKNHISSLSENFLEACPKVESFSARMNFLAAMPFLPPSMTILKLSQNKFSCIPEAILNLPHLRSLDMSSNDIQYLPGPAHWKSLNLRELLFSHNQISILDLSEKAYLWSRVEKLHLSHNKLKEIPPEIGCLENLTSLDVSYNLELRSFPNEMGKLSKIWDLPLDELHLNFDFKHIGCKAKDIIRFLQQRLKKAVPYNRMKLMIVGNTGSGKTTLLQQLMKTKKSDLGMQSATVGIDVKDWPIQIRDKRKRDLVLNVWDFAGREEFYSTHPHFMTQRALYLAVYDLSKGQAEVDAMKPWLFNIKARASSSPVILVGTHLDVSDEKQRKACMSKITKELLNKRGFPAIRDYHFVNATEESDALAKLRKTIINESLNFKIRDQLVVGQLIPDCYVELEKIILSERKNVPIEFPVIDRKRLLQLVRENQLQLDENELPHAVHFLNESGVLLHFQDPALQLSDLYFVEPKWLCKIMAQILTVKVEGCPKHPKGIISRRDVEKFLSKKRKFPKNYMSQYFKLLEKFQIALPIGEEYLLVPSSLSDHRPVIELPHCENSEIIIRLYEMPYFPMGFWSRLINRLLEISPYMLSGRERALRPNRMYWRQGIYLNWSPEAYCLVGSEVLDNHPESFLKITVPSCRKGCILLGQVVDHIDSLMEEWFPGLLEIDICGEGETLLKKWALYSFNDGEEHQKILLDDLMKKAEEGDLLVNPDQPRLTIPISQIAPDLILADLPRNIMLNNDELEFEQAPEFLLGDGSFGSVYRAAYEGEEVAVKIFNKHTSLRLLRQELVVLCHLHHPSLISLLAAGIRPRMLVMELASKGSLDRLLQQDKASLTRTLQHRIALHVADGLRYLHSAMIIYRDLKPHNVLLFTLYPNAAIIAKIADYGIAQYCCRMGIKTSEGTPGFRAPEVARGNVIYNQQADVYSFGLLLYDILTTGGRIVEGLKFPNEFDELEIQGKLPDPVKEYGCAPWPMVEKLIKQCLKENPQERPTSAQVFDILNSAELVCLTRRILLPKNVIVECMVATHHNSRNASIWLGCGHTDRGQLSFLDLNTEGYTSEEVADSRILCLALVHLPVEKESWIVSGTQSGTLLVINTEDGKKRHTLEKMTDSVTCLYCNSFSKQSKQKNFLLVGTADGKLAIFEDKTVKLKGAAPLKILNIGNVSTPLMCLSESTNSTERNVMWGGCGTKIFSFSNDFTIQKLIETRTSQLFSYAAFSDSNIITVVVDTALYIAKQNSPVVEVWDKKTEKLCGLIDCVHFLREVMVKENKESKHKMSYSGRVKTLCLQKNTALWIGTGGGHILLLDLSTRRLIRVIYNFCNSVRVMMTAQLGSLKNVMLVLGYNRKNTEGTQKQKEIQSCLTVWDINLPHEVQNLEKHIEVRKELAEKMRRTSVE
Experimental: as §1

[3] = molecular target: MAP2K1 (Homo sapiens, UniProt Q02750); assay: Kinobeads competition binding, HL60 cell lysate; parameters: Identified kinases with CZC31326 from HL60 lysate; endogenous in cells; host or cells: HL60; conditions: 10 μM free compound
MAP2K1, sequence (Q02750 whole entry): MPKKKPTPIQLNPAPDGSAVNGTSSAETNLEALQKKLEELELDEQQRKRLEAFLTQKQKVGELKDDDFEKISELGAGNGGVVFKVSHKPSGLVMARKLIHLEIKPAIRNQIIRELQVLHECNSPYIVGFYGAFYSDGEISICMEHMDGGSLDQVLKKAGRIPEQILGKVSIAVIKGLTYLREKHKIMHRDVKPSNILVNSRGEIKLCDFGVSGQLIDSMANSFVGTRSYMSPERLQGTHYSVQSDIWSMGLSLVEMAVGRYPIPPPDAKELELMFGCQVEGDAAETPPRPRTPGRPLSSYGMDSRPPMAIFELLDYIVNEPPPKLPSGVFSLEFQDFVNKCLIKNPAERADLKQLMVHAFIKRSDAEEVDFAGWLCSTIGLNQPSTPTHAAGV
Experimental: as §1

[4] = molecular target: MAP2K3 (Homo sapiens, UniProt P46734); assay: Kinobeads competition binding, HL60 cell lysate; parameters: Identified kinases with CZC31326 from HL60 lysate; endogenous in cells; host or cells: HL60; conditions: 10 μM free compound
Experimental: as §1

[5] = molecular target: JAK2 (Homo sapiens, UniProt O60674); assay: Kinobeads competition binding, L-363 cell lysate; parameters: Identified kinases with CZC31326 from L-363 cell lysate; endogenous in cells; host or cells: L-363 (MG132-treated); conditions: 10 μM free compound, L-363 lysate
JAK2, sequence (O60674 whole entry): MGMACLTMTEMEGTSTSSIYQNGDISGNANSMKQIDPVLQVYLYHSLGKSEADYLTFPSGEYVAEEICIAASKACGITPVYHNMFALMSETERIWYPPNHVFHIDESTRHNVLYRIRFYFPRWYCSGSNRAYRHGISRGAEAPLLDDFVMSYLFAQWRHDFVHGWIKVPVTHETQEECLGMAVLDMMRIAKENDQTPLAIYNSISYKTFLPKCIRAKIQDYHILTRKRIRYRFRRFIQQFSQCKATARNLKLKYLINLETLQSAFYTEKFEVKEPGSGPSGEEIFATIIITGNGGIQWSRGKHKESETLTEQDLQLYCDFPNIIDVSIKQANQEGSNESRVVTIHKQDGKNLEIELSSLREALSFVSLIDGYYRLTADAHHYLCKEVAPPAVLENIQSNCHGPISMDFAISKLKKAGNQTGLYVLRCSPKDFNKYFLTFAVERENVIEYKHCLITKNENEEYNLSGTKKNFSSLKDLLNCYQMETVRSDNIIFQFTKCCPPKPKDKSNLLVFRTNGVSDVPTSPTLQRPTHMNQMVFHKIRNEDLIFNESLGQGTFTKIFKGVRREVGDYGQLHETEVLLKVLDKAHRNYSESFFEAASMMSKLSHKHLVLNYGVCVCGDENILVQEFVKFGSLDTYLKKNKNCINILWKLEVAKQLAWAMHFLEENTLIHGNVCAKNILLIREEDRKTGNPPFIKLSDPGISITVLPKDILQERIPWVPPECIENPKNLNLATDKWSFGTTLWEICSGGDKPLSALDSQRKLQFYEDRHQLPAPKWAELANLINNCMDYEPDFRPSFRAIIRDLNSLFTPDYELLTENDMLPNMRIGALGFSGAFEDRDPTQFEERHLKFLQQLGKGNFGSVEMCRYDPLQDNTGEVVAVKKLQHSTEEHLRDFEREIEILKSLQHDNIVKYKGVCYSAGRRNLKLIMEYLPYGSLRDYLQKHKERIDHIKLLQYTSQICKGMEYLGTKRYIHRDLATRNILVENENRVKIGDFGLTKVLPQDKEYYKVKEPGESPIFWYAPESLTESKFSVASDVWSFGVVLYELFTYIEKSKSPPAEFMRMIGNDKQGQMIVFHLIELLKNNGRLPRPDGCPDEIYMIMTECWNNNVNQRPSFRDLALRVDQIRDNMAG
Experimental: To one aliquot of cell lysate 10 μM of the free compound (FIG. 3, CZC31326) was added and allowed to bind to proteins in the lysate. Then the affinity matrix with the immobilized compound was added to capture proteins that were not interacting with the previously added free compound. Beads were separated from the lysate and bead bound proteins were eluted in SDS sample buffer and subsequently separated by SDS-Polyacrylamide gel electrophoresis (FIG. 8). Suitable gel bands were cut out and subjected to in-gel proteolytic digestion with trypsin. The second lysate aliquot was processed identically, however no free compound was added (DMSO solvent control). Peptides originating from samples 1 and 2 were labeled with iTRAQ reagents (iTRAQ 114 and iTRAQ 117) and the combined samples were analyzed with a nano-flow liquid chromatography system coupled online to a tandem mass spectrometer (LC-MS/MS) experiment followed by iTRAQ reporter ion quantification in the MS/MS spectra as described in Example 2.
For this experiment the human plasma cell leukaemia line L-363 was used (German Collection of Microorganisms and Cell Cultures, DSMZ number ACC49, Braunschweig, Germany). Cells were treated for three hours with 20 μM of the proteasome inhibitor MG132 (Z-Leu-Leu-Leu-al, Sigma C2211) prior to cell harvesting.

LOK, sequence (O94804 whole entry): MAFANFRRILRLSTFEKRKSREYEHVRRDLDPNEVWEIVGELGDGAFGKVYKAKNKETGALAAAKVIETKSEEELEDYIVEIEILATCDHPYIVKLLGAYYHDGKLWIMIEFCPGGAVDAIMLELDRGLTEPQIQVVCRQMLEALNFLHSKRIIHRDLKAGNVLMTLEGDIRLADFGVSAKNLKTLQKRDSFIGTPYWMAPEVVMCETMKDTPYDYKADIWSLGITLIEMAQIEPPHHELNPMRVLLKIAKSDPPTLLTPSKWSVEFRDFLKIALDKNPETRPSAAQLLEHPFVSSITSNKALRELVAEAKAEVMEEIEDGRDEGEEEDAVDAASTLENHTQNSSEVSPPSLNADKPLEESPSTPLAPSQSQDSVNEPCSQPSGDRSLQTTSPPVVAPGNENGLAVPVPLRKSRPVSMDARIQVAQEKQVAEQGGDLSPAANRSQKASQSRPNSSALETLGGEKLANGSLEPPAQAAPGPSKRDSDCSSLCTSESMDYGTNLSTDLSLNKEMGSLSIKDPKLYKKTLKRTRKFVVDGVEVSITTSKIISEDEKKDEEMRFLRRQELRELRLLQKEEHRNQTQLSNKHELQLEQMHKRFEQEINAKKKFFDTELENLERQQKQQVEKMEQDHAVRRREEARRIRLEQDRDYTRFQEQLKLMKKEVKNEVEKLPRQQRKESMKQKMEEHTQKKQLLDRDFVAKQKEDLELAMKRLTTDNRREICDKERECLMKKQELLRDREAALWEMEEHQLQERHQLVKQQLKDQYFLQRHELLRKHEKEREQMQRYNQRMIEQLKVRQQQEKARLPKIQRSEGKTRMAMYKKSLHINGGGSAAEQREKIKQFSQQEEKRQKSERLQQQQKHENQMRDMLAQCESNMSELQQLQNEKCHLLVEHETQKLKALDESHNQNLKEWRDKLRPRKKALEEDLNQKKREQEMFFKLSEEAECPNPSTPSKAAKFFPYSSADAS

## CS(=O)(=O)Nc1ccccc1Nc1nc(Nc2cccc(OCCN)c2)ncc1Cl [CZC31326, N-(2-(2-(3-(2-aminoethoxy)phenylamino)-5-chloropyrimidin-4-ylamino)phenyl)methanesulfonamide]
[1]
  Competition %: 95.3%
[2]
  inhibition at 10 µM: 71.7%
[3]
  inhibition at 10 µM: 85.2%
[4]
  inhibition at 10 µM: 90.9%
[5]
  Competition %: 96.1%
